Data as given in publication PMC2719696, “Kinetics and Cellular Site of Glycolipid Loading Control the Outcome of Natural Killer T Cell Activation” (Immunity, 2009).

What was measured:
murine iNKT cell TCRs = experiment: Equilibrium binding of glycolipid-loaded mCD1d tetramers to murine iNKT cells; design: species or system mouse; settings: tetramer staining of murine iNKT cells
Experimental: The interactions of iNKT cell TCRs with CD1d molecules loaded with αGalCer analogs were analyzed with fluorescent murine and human CD1d tetramers. […] Equilibrium binding studies for measuring TCR avidities were carried out by incubation of human or murine iNKT cells with varying concentrations of αGalCer-analog-loaded tetramers and determining relative levels of cell-associated fluorescence ([Stanic et al., 2003; Yu et al., 2005]).
Figure 2 Characterization of iNKT Cell TCR Interactions with αGalCer Analogs (A) Flow cytometry analysis of human and murine iNKT cells with αGalCer analog-CD1d tetramers. In the top row, murine iNKT cells from C57BL/6 splenocytes were costained with αGalCer analog-loaded or unloaded mCD1d tetramers conjugated with PE (x axis) and αGalCer-C26:0-loaded-mCD1d tetramers conjugated with APC (y axis). In the bottom row, human PBMCs were similarly costained with human glycolipid-loaded CD1d tetramers. (B) Binding avidity of glycolipid-mCD1d complexes to murine iNKT cell TCRs. Histograms at left show tetramer staining of NK1.1^+ CD3^+ T cells in C57BL/6 splenocytes with glycolipid-loaded tetramers at 20 nM. […]
Recombinant CD1d proteins were produced and assembled into tetramers for staining as previously described ([Forestier et al., 2007]). […] All samples were analyzed with the FACSCalibur flow cytometer (BD Biosciences).

mCD1d = target: T1, mCD1d (Mus musculus, UniProt P11609); experiment: mAb L363 staining of αGalCer-mCD1d complexes on cultured mouse splenocytes; assay type: cell-based; settings: 100 nM glycolipid, 1 hr or 19 hr
T1 construct: host or cells: JAWS II (C57BL/6.Trp53-/- derived dendritic cell line)
T1 sequence (P11609 22-336): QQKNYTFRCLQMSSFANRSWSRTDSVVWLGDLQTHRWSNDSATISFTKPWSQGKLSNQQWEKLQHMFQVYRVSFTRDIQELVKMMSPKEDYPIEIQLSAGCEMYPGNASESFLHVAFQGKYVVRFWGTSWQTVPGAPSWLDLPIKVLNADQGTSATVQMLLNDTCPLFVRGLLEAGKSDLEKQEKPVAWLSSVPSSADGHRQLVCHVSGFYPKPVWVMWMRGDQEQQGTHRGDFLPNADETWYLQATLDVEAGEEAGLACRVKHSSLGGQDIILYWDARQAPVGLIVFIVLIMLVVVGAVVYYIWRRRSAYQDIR
T1 sequence (P01887 21-119 partner): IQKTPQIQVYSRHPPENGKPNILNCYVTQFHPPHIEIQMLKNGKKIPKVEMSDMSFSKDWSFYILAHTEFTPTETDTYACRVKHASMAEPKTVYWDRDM
Experimental: We studied this possibility directly by using a monoclonal antibody (L363) that specifically recognizes complexes of αGalCer bound to mCD1d ([Yu et al., 2007]). Mouse splenocytes were cultured with either αGalCer-C26:0 or representative Th2 cell-type cytokine-biasing analogs, and L363 staining was assessed on various cell types (Figure 3A). […] This was investigated further with more detailed kinetic studies in which immortalized mouse DC line JAWS II was cultured with each glycolipid and assessed for L363 surface staining at 0.5, 4, and 18 hr (Figure 3B). […]
Figure 3 Direct Analysis of Presentation of αGalCer Analogs with Complex-Specific mAb Staining (A) Mouse splenocytes cultured with either vehicle only (0.02% DMSO) or with the indicated αGalCer analogs (100 nM) were harvested after 1 hr or 19 hr of incubation and stained with mAb L363 or anti-CD1d mAb 1B1 and with mAbs specific for CD11c, CD19, and F4/80 (Figure S4). […] (B) JAWS II cells were incubated with glycolipids (250 nM) for various times ranging from 0.5–18 hr as indicated, stained with mAb L363, and analyzed by flow cytometry. […]
Recombinant CD1d proteins were produced and assembled into tetramers for staining as previously described ([Forestier et al., 2007]). […] All samples were analyzed with the FACSCalibur flow cytometer (BD Biosciences). […]

Structure (SMILES) | TCR avidity of glycolipid-mCD1d complexes (murine iNKT cell TCRs) | L363 staining of splenocyte populations (mCD1d)
CCCCCCCCCCCCCCCCCCCCCCCC(=O)NC(COC1OC(CO)C(O)C(O)C1O)C(O)C(O)CCCCC (centres unmarked) [OCH] | weak binding | 
CCCCCCCCCCCCCCC(O)C(O)C(COC1OC(CO)C(O)C(O)C1O)NC(=O)CCCCCCCCC (centres unmarked) [αGalCer-C10:0] |  | extremely early appearance of L363 staining
